From US20120015364A1, “METHOD FOR THE SELECTION OF ENDOTHELIAL CELLS DEATH INDUCERS VIA NETRIN-1 AND ITS APPLICATIONS” (CENTRE NATIONAL DE LA RECHERCHE SCIENTIFIQUE (CNRS), priority 2009, published 2012)
Peptide text beside a SMILES is read from it. * marks the point of attachment. Cbz = O=C(OCc1ccccc1)*; CH2F = FC*

Experiments:
[1] = test system: fli:egfp zebrafish embryos; assay: Morpholino knockdown of fli:egfp zebrafish embryos, trunk vasculature phenotype; assay type: in vivo
Method: Resource Center (University of Oregon) and maintained under standard breeding conditions at 28° C. (Lawson and Weinstein, 2002). Embryos were dechorionated using pronase enzymatic treatment and 6 ng of splice/translation blocking netrin-1, UNC5B and control morpholinos that were previously designed and characterized were injected alone or in combination in the high yolk of one to four-cells-stage embryos. A third splice-blocking morpholino specifically targeting netrin-1a was designed (GeneTools) and injected in embryos at the same dose. Finally, 3 ng of a translation-blocking morpholino targeting zebrafish ortholog of DAP kinase (GeneTools) was injected, leading to 35% decrease of DAP kinase mRNA expression in knocked-down embryos compared to control. Sequences of morpholinos are available upon request. Embryos were raised in E3 medium supplemented with 0.003% phenylthiourea to inhibit pigment formation. Rescue of phenotype induced by netrin-1a silencing was tested by adding 40 nM BAF in the E3 medium 4 hours after morpholinos injection. For TUNEL staining, embryos were fixed at 48 hpf in 4% PFA overnight at 4° C. They were then rinsed 10 minutes in PBS-Tween 0.1% (PBST) and progressively dehydrated in successive methanol baths (25, 50, 75 and 100%). […]

murine aortic rings = assay: Aortic ring matrigel assay (ex vivo); assay type: cell-based, mouse; conditions: netrin-1 150 ng/ml, z-VAD-fmk 20 nM, BAF 20 nM, VEGF 13 ng/ml; day 4
Method: Aortic ring assays were performed as described by Nicosia and colleagues (Nicosia and Ottinetti, 1990). Aortas were resected from Balb/C mice of 6 to 8 weeks of age, cleaned of periadventitial fat and connective tissues, rinsed twice in ECGM and cut in rings of 1 to 1.5 mm length. One hundred microliters of Growth factor reduced Matrigel (BD Biosciences) was added to each well of a 48-well tissue culture plate (Costar) and allowed to solidify for 30 min. at 37° C. Aortic rings were placed on the matrix layer, embedded in 100 μl of Matrigel, and allowed to recover in complete growth medium (ECGM, Promocell) for 24 hours. They were then treated or not with netrin-1 (150 ng/ml), z-VAD-fmk (Tebu; 20 nM), BAF (Sigma; 20 nM) or VEGF (Sigma; 13 ng/ml) and photographed with a phase contrast microscope on day 4. Microvessels outgrowth total length was calculated using AxioVision Release 4.6 software.

[2] = test system: chick chorioallantoic membrane; assay: Chick chorioallantoic membrane (CAM) assay; assay type: in vivo; conditions: 8-day-old chick embryos, 3 days; netrin-1 150 ng/ml, z-VAD-fmk 20 nM, BAF 20 nM; p<0.02
Method: Chick chorioallantoic membrane assay (CAM) assay was performed as already described. White Leghorn eggs were incubated at 37° C. in a humidified atmosphere. After 72 hours of incubation, 3 ml albumen was removed and a square window was opened into the shell. The opening was closed with cellotape until day 8. Netrin-1 (150 ng/ml), z-VAD-fmk (Tebu; 20 nM), BAF (Sigma; 20 nM), or VEGF (Sigma) were then diluted in PBS and mixed with an equal volume of autoclaved 1% methylcellulose solution. Controls were prepared with vehicles only. Each sample solution (10 μl) was dropped on Parafilm and dried up. The methylcellulose disks were stripped off from the Parafilm and placed on a CAM of the 8-day-old chick embryos. After 3 days, CAMs were photographed and the angiogenic response was evaluated by measuring the number of secondary ectopic vessels sprouts under the methylcellulose disks using AxioVision Release 4.6 software. UNC5B silencing in CAM was achieved by injection of specific siRNA designed by Sigma-Proligo in CAM blood circulation at E.5, E.7 and E.9. Analysis was performed at E.11.

zebrafish embryos = assay: Apoptosis in zebrafish embryos (TUNEL staining, caspase-3 activity); assay type: in vivo; conditions: TUNEL immunostaining and caspase-3 activity; tsl-netrin-1a injected embryos
Method: Embryos were dechorionated using pronase enzymatic treatment and 6 ng of splice/translation blocking netrin-1, UNC5B and control morpholinos that were previously designed and characterized were injected alone or in combination in the high yolk of one to four-cells-stage embryos. A third splice-blocking morpholino specifically targeting netrin-1a was designed (GeneTools) and injected in embryos at the same dose. […] Embryos were raised in E3 medium supplemented with 0.003% phenylthiourea to inhibit pigment formation. Rescue of phenotype induced by netrin-1a silencing was tested by adding 40 nM BAF in the E3 medium 4 hours after morpholinos injection. For TUNEL staining, embryos were fixed at 48 hpf in 4% PFA overnight at 4° C. They were then rinsed 10 minutes in PBS-Tween 0.1% (PBST) and progressively dehydrated in successive methanol baths (25, 50, 75 and 100%). […] Caspase-3 activity assay was performed as described above on whole embryos at 24 h development.

DAP kinase = DAP kinase phosphorylation, Western blot; assay type: cell-based, human; conditions: HUVEC; netrin-1 in serum free medium 24 hours
Method: Endothelial cells seeded at 10 000 cells/cm^2 and treated or not with netrin-1 in serum free medium (Endothelium Cell Basal Medium, Promocell) for 24 hours were collected and lysed in 50 mM HEPES pH 7.6, 125 mM NaCl, 5 mM EDTA and 0.1% NP-40 buffer in the presence of protease inhibitors. Protein extracts were immunoblotted with anti-DAP-kinase and anti-phospho-DAP kinase antibodies (Sigma). For immunofluorescence analysis, cells were seeded on LabTek chamber slides and fixed 15 minutes in 4% PFA.

HUVEC [3] = assay: TUNEL staining of apoptosis; assay type: cell-based, human; conditions: netrin 50 ng/ml
Method: (§1) Cell death assays were performed as described previously. Briefly, endothelial cells were seeded at 10 000 cells/cm2 in complete medium for 16 hours. Cell death was induced either by starvation in serum free medium (Endothelium Cell Basal Medium, Promocell) or by exposure to 50 μM etoposide. Netrin-1 was purchased from Axxora-Apotech. Cell death was scored by trypan blue exclusion assay as previously described. For detection of DNA fragmentation, treated cells cultured on coverslips were fixed 20 minutes in 4% paraformaldehyde (PFA) and Terminal deoxynucleodityl transferase mediated dUTP-biotin Nick End Labeling (TUNEL) was performed with 300 U/mL TUNEL enzyme (300 U/mL) and 6 μM biotinylated dUTP (Roche Diagnostics). Caspase-3 activity was measured using ApoAlert CPP32 kit from Clontech (USA) and by immunostaining on fixed cells using anti-active-caspase-3 antibody (Cell Signaling) as described in (Llambi et al., 2005; Tauszig-Delamasure et al., 2007). Toxilight assay was performed according to manufacturer's instructions (Lonza). For netrin-1 titration experiment, rat recombinant UNC5H2-Fc (R&D) was used at 1 μg/ml.

HUAEC [4] = assay: Etoposide-induced cell death, Toxilight assay; assay type: cell-based, human; conditions: overnight treatment with 50 μM etoposide; p<0.05
Method: as §1

HUVEC [5] = assay: Etoposide-induced cell death, Toxilight assay; assay type: cell-based, human; conditions: overnight treatment with 50 μM etoposide; p<0.05
Method: as §1

HUAEC [6] = assay: Caspase-3 activity assay (ApoAlert CPP32 kit, active caspase-3 immunostaining); assay type: cell-based, human; conditions: netrin 50 ng/ml, p<0.005
Method: as §1

HUAEC [7] = assay: Cell death upon serum starvation, trypan blue exclusion; assay type: cell-based, human; conditions: netrin 50 ng/ml, p<0.005
Method: as §1

HUVEC [8] = assay: as above; assay type: cell-based, human; conditions: netrin 50 ng/ml, p<0.005
Method: as §1

HUVEC [9] = assay: Caspase-3 activity assay (ApoAlert CPP32 kit, active caspase-3 immunostaining); assay type: cell-based, human; conditions: netrin 50 ng/ml, p<0.005
Method: Human umbilical vein and artery cells (Promocell, passages<8) were cultured in endothelial cell growth medium (ECGM, Promocell) supplemented with 2% serum (kit, Promocell) until they reach 80% confluence. HUVEC were transfected using the AMAXA Nucleofector system, according to manufacturer's instructions. In brief, 500 000 cells were resuspended in 100 μl HUVEC Nucleofector solution and transfected with 1 μg siRNA or 1.5 μg plasmid DNA and 0.5 μg GFP-encoding control plasmid. UNC5A, UNC5B and scramble siRNAs were designed by Sigma-Proligo. Plasmids encoding mutant DAP kinase (DAP kinase ΔCam and DAP kinase DD) were described previously (Llambi et al., 2005). After transfection, cells were cultured in 1% growth medium and collected after 24 hours.
Cell death assays were performed as described previously. Briefly, endothelial cells were seeded at 10 000 cells/cm2 in complete medium for 16 hours. Cell death was induced either by starvation in serum free medium (Endothelium Cell Basal Medium, Promocell) or by exposure to 50 μM etoposide. Netrin-1 was purchased from Axxora-Apotech. Cell death was scored by trypan blue exclusion assay as previously described. […] Caspase-3 activity was measured using ApoAlert CPP32 kit from Clontech (USA) and by immunostaining on fixed cells using anti-active-caspase-3 antibody (Cell Signaling) as described in (Llambi et al., 2005; Tauszig-Delamasure et al., 2007). […]

| reduced caspase-3 activity (HUAEC [6]) [%] | reduced caspase-3 activity (HUVEC [9]) | Molecule | embryos with PAV formation ([1]; spl-netrin-1a injected embryos treated with 40 nM BAF, n=54, 42.7% in untreated, p<0.0001) [%] | embryos displaying at least partial ISVs ([1]; tsl-netrin-1a knock-down embryos treated with BAF, 23.0% in controls, p<0.001) [%] | capillary sprouting / microvessels formation from aortic rings (murine aortic rings) | neovessel formation in vicinity of methylcellulose discs [2] | increase of cell death after netrin-1a silencing (zebrafish embryos) | DAP kinase phosphorylation (DAP kinase) | number of TUNEL positive cells (HUVEC [3]) | HUAEC cell death upon etoposide (HUAEC [4]) | HUVEC cell death upon etoposide (HUVEC [5]) | HUAEC cell death (HUAEC [7]) | HUVEC cell death (HUVEC [8]) |
| --- | --- | --- | --- | --- | --- | --- | --- | --- | --- | --- | --- | --- | --- |
|  |  | COC(=O)C[C@H](NC(=O)OC(C)(C)C)C(=O)CF [BAF] | 92.6 | 54.5 | induced neocapillary tube formation | significant increase in neovessel formation | rescued the increase of cell death |  |  |  |  |  |  |
|  |  | COC(=O)C[C@H](NC(=O)[C@H](C)NC(=O)[C@@H](NC(=O)OCc1ccccc1)C(C)C)C(=O)CF [z-VAD-fmk, reference compound] (Cbz-Val-Ala-Asp(OMe)-CH2F) |  |  | induced neocapillary tube formation | significant increase in neovessel formation |  |  |  |  |  |  |  |
|  |  | VEGF |  |  | enhanced capillary sprouting | significant increase in neovessel formation |  |  |  |  |  |  |  |
| ≤ 40 | up to 30% | netrin-1 |  |  | enhanced capillary sprouting | significant increase in neovessel formation |  | increase in DAP kinase phosphorylation | decreased number of TUNEL positive cells | inhibits | inhibits | inhibited | inhibited |
